The test system of data set [1] is Mus musculus. The data set is described as follows: Toxicity in athymic nude mouse assessed as cold at 100 mg/kg, po bid for 8 days. Details: dose 100 mg/kg, route oral. It is filed as organism-based. The note with it: in vivo, 192 h.
Data set [2] has as its system Mus musculus. The data set is described as follows: In vivo inhibition of tankyrase in tumor of athymic nude mouse xenografted with human DLD1 cells assessed as axin accumulation at 50 mg/kg, po bid for 3 days. The note with it: DLD-1. Details: dose 50 mg/kg. The class given is functional, organism-based.
Data set [3] concerns the target D(2) dopamine receptor (Homo sapiens, UniProt P14416). The data set is described as follows: Binding affinity to dopamine D2 receptor (unknown origin).
Data set [4] has as its target Adenosine receptor A2a (Homo sapiens, UniProt P29274). Put plainly: Binding affinity to adenosine A2A receptor (unknown origin).
Data set [5] concerns the target Dual specificity protein kinase CLK4 (Homo sapiens) (UniProt Q9HAZ1). The data set is described as follows: Inhibition of CLK4 (unknown origin) at 1 uM after 1 hr.
In data set [6] the test system is Mus musculus. Put plainly: In vivo inhibition of tankyrase-mediated Wnt gene transcription in tumor of athymic nude mouse xenografted with human DLD1 cells at 200 mg/kg, po bid for 3 days by STF assay. The class given is functional, organism-based. The note with it: DLD-1. More on the design: dose 200 mg/kg. (Xenograft models place foreign cells or tissue in a host animal.)

The subject of data set [7] is Mus musculus. Put plainly: In vivo inhibition of tankyrase in tumor of athymic nude mouse xenografted with human DLD1 cells assessed as axin accumulation at 200 mg/kg, po bid for 3 days. More on the design: dose 200 mg/kg. The settings on record: DLD-1. The class given is functional, organism-based.
The nature of data set [8]: Intrinsic clearance in rat liver microsomes. It is filed as ADME. The note with it: read-out: CLH.
The target in data set [9] is T1, Tankyrase 1/2 (Homo sapiens, UniProt Q9H2K2+O95271).
T1 sequence (Q9H2K2 whole entry): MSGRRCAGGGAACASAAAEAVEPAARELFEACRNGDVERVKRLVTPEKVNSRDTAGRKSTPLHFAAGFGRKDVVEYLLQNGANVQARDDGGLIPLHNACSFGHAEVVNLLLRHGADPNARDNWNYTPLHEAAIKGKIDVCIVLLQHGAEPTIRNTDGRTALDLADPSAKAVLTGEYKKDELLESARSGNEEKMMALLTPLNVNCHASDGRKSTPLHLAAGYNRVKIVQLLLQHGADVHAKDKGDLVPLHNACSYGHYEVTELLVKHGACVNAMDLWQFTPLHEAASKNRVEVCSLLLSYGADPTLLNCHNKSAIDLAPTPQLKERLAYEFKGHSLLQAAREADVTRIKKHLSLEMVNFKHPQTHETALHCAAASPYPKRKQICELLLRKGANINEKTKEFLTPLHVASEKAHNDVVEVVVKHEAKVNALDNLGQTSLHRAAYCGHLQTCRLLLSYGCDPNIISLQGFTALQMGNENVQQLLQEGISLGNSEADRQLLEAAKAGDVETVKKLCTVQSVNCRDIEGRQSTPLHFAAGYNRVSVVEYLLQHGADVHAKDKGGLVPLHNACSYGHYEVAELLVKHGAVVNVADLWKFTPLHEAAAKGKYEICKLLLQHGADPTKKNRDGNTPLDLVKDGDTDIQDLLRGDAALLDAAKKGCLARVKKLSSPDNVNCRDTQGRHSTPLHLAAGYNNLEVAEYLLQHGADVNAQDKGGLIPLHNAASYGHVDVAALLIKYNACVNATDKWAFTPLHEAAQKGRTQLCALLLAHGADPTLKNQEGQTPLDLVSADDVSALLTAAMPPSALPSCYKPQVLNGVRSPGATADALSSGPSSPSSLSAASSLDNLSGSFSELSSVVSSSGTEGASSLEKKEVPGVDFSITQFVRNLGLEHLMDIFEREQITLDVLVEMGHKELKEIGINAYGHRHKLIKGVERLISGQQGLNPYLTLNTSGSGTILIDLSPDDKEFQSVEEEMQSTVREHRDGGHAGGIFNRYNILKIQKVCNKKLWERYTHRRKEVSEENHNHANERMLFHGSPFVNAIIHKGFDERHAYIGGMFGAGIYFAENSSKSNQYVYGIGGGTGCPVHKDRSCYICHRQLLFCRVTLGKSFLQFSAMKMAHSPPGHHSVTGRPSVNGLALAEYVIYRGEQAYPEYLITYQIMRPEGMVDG
T1 sequence (O95271 whole entry): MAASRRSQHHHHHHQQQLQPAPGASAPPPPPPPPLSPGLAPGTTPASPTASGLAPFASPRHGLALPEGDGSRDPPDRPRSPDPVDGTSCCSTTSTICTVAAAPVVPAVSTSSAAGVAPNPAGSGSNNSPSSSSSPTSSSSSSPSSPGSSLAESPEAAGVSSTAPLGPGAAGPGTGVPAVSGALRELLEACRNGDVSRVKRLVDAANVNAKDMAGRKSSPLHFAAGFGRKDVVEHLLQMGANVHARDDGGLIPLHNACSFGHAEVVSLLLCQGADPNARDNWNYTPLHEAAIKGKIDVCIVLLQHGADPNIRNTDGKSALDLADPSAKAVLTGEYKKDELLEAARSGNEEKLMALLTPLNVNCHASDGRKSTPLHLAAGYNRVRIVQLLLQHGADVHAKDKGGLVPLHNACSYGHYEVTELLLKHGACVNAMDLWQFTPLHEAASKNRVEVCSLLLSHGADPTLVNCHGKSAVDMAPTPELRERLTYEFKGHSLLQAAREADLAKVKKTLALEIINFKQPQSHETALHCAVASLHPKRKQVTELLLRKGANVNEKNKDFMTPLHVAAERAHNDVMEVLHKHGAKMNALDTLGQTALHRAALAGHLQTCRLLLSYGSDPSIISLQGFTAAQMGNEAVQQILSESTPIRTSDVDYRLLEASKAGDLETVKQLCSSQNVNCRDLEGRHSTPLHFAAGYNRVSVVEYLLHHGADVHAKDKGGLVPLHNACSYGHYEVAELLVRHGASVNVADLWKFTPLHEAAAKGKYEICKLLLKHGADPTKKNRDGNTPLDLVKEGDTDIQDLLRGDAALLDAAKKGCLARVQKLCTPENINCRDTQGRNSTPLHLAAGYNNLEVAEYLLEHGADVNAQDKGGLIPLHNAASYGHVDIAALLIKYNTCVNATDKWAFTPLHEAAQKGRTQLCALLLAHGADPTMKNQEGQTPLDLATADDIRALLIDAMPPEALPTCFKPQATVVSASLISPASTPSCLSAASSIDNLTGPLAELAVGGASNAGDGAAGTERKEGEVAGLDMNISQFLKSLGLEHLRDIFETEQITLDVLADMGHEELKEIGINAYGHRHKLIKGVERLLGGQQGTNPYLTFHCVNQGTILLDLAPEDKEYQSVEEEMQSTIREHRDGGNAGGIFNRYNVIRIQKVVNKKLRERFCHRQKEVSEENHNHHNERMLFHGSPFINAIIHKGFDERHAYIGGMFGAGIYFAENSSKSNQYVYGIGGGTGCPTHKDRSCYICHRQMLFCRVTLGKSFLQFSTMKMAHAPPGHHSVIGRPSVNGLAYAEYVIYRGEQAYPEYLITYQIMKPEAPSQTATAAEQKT
The data set is described as follows: Inhibition of tankyrase in human DLD1 cells assessed as inhibition of Wnt gene transcription after 40 to 48 hrs by STF assay. The note with it: dld-1. It is filed as cell-based.

Data set [10] concerns the target T1, Tankyrase 1/2. Put plainly: Inhibition of tankyrase in human SW480 cells assessed as degradation of total beta-catenin after 40 to 48 hrs. The class given is cell-based.
Data set [11] addresses T1, Tankyrase 1/2. Put plainly: Inhibition of tankyrase in human SW480 cells assessed as axin2 accumulation after 24 hrs by Hoechst dye-based assay. It is filed as cell-based.

Active and inactive are the calls of the source. The rule behind the calls is not given here.

Dual specificity protein kinase CLK4 (Homo sapiens), sequence (Q9HAZ1 whole entry, looked up): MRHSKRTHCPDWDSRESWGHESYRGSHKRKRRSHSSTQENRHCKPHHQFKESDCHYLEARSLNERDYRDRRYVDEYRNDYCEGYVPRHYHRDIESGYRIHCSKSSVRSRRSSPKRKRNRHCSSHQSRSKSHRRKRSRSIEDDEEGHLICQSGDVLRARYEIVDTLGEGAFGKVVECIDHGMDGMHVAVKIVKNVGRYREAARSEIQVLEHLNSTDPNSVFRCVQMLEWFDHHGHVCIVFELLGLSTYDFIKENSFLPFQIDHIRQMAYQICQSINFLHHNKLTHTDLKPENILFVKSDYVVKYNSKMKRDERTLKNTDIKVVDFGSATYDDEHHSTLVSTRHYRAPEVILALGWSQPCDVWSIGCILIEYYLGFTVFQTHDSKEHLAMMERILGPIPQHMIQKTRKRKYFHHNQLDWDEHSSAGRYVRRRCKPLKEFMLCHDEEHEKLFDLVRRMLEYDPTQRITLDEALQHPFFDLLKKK
Adenosine receptor A2a, sequence (P29274 whole entry): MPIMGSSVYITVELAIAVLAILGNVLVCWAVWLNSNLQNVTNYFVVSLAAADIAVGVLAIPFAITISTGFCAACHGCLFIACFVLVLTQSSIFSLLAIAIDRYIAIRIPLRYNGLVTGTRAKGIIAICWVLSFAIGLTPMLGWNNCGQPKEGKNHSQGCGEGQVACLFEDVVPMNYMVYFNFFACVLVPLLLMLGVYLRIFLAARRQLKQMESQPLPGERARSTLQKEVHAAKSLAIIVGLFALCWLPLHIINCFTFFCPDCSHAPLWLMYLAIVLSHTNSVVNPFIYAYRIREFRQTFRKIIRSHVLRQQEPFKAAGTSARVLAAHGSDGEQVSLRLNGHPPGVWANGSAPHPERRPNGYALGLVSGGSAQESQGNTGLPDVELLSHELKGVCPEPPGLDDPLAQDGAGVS
D(2) dopamine receptor, sequence (P14416 whole entry): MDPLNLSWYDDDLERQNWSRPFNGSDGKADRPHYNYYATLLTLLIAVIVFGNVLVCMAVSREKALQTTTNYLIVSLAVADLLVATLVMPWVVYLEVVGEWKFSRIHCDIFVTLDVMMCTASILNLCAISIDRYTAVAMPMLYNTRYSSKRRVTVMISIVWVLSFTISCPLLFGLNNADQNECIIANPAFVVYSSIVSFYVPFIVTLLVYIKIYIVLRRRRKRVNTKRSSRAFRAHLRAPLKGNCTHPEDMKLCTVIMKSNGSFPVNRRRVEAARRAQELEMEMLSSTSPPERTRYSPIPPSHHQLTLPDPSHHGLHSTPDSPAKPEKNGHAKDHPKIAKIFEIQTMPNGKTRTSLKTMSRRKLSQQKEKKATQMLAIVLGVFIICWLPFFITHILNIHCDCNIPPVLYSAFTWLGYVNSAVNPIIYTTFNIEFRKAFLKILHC

For orientation: IC50 means the concentration that inhibits the measured activity by half. With `CC1(C)OC(=O)N([C@H]2CC[C@H](c3cnc(N)c(-c4ncccn4)c3)CC2)[C@H]1c1ccccc1`, the Activity result in data set [1] is reported as “Toxic”. For the same compound, the inhibition entry in [2] was “Active”. Besides, the IC50 in [3] and in data set [4] was above 48500 nM each time. Also, the inhibition entry in data set [5] is “inactive”.

In general, EC50 refers to the midpoint of the concentration-response curve. `CC1(C)OC(=O)N(c2ccc(-c3cnc(N)c(-c4ncccn4)c3)cc2)[C@H]1c1ccccc1`: the inhibition entry in data set [6] and in data set [7] was “Active” in each case. The inhibition result in [5] is “inactive”. The microsomal CLint in data set [8] came to 48 µL/min/mg. Also, the IC50 in [9] was 96 nM; in data set [10] it was 233 nM. Further, the EC50 in data set [11] came out at 709 nM.

For the origin of these results see ChEMBL document CHEMBL3098003, “Structure-based design of 2-aminopyridine oxazolidinones as potent and selective tankyrase inhibitors” (ACS Med Chem Lett, 2013).
